The subject of one assay is HCT116 WT cells. The assay can be described thus: HCT116 WT (parent) cell line proliferation / cell viability (CellTiter-Glo, 6 days). The format is cell-based. To be noted: Homo sapiens, HCT-116, 144 h, 6 days treatment. The essentials:
(§1)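 Isogenic HCT116 pair (parental and MTAP-knockout) in RPMI 1640 + 10% FBS, treated 6 days with 8–9-point 1:3 dilutions from 1 or 10 μM top, or 22-point 1:2 dilutions from 10 or 50 μM top. Viability by CellTiter-Glo luminescence; IC50 from 4-parameter logistic fit or sigmoidal fit with Hill slope fixed at −1.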

In another assay the test system is HCT116 MTAP null cells. The assay can be described thus: HCT116 MTAP null cell line proliferation / cell viability (CellTiter-Glo, 6 days). Format: cell-based. The following applies: 144 h; HCT116 MTAP null cells, 6 days treatment, CellTiter-Glo cell viability; read-out: HCT-116 MTAP null IC50. In a few lines: as §1

The structures appear in SMILES notation. pIC50: −log10 of the molar value.

As to `CCN(C(=O)c1cc2c(cc1F)nc(N)c1cnn(C)c12)[C@@H]1COc2cc(C(F)(F)F)ccc21` [Example 243, 4-amino-N-ethyl-7-fluoro-1-methyl-N-((3S)-6-(trifluoro-methyl)-2,3-dihydro-1-benzo-furan-3-yl)-1H-pyrazolo[4,3-c]-quinoline-8-carboxamide], the negative logarithm of the IC50 (pIC50) in the assay on HCT116 WT cells is 7.09; with HCT116 MTAP null cells it was 8.05.
For the compound `CCN(C(=O)c1cc2c(cc1F)nc(N)c1cnn(C)c12)[C@H]1COc2cc(C(F)(F)F)ccc21` [Example 244, 4-amino-N-ethyl-7-fluoro-1-methyl-N-((3R)-6-(trifluoro-methyl)-2,3-dihydro-1-benzo-furan-3-yl)-1H-pyrazolo[4,3-c]quinoline-8-carboxamide], the results for the pIC50 in the assay on HCT116 WT cells and in the assay on HCT116 MTAP null cells were 5.13 and 6.74, respectively.
`CN(C(=O)c1cc2c(cc1F)nc(N)c1cnn(C)c12)[C@@H]1COc2cc(-c3cnn(C(F)(F)F)c3)ccc21` [Example 247, 4-amino-7-fluoro-N,1-dimethyl-N-((3S)-6-(1-(trifluoromethyl)-1H-pyrazol-4-yl)-2,3-dihydro-1-benzofuran-3-yl)-1H-pyrazolo[4,3-c]quinoline-8-carboxamide]: the pIC50 was 6.52 in the assay with HCT116 WT cells and 8.30 with HCT116 MTAP null cells.
For `CN(C(=O)c1cc2c(cc1Cl)nc(N)c1cnn(C)c12)[C@@H]1COc2cc(-c3cnn(C(F)(F)F)c3)ccc21` [Example 249, 4-amino-7-chloro-N,1-dimethyl-N-((3S)-6-(1-(trifluoromethyl)-1H-pyrazol-4-yl)-2,3-dihydro-1-benzo-furan-3-yl)-1H-pyrazolo[4,3-c]quinoline-8-carboxamide], in that order: 7.18 and 8.52.
For `Cc1cc2nc(N)c3cnn(C)c3c2cc1C(=O)N(C)[C@@H]1COc2cc(C(F)(F)F)ccc21` [Example 250, 4-amino-N,1,7-trimethyl-N-((3S)-6-(trifluoromethyl)-2,3-dihydro-1-benzofuran-3-yl)-1H-pyrazolo[4,3-c]quinoline-8-carboxamide], in that order: 7.34 and 8.70.
For `Cc1nc2nc(N)c3cnn(C)c3c2cc1C(=O)N(C)[C@@H]1COc2cc(C(F)(F)F)ccc21` [Example 251, 4-amino-N,1,7-trimethyl-N-((3S)-6-(trifluoromethyl)-2,3-dihydro-1-benzofuran-3-yl)-1H-pyrazolo[4,3-c][1,8]-naphthyridine-8-carboxamide], the pIC50 in the assay on HCT116 WT cells was 6.66; in the assay with HCT116 MTAP null cells it was 8.15.
As for `Cc1nc2nc(N)c3cnn(C)c3c2cc1C(=O)N(C)[C@@H]1COc2cc(Cl)c(Cl)cc21` [Example 252, 4-amino-N-((3S)-5,6-dichloro-2,3-dihydro-1-benzofuran-3-yl)-N,1,7-trimethyl-1H-pyrazolo[4,3-c][1,8]naphthyr-idine-8-carboxamide], the negative logarithm of the IC50 (pIC50) in the assay on HCT116 WT cells was 6.63; with HCT116 MTAP null cells, 7.72.
As to `CN(C(=O)c1cc2c(cc1C(F)(F)F)nc(N)c1cnn(C)c12)[C@@H]1COc2cc(C(F)(F)F)ccc21` [Example 253, 4-amino-N,1-dimethyl-7-(trifluoromethyl)-N-((3S)-6-(trifluoromethyl)-2,3-dihydro-1-benzofuran-3-yl)-1H-pyrazolo[4,3-c]quinoline-8-carboxamide], the results for the pIC50 with HCT116 WT cells and in the assay with HCT116 MTAP null cells were 5.68 and 7.46, respectively.
As to `CN(C(=O)c1cc(F)c2nc(N)c3cnn(C)c3c2c1)[C@@H]1COc2cc(C(F)(F)F)ccc21` [Example 254, 4-amino-6-fluoro-N,1-dimethyl-N-((3S)-6-(trifluoromethyl)-2,3-dihydro-1-benzofuran-3-yl)-1H-pyrazolo[4,3-c]quinoline-8-carboxamide], the values for the pIC50 with HCT116 WT cells and in the assay on HCT116 MTAP null cells were 4.69 and 6.51, respectively.
On to `CN(C(=O)c1ccc2nc(N)c3c(cnn3C)c2c1)[C@@H]1COc2cc(S(F)(F)(F)(F)F)ccc21` [Example 255, 4-amino-N,3-dimethyl-N-((3S)-6-(pentafluoro-lambda~6~- sulfanyl)-2,3-dihydro-1-benzo-furan-3-yl)-3H-pyrazolo[3,4-c]quinoline-8-carboxamide], for which the figures for the pIC50 with HCT116 WT cells and with HCT116 MTAP null cells were 5.62 and 7.33, respectively.
As to `CN(C(=O)c1cc2c(cn1)nc(N)c1c2cnn1C)[C@@H]1COc2cc(C(F)(F)F)ccc21` [Example 256, 4-amino-N,3-dimethyl-N-((3S)-6-(trifluoromethyl)-2,3-dihydro-1-benzofuran-3-yl)-3H-pyrazolo[3,4-c][1,7]naphthyr-idine-8-carboxamide], the pIC50 with HCT116 WT cells was 5.12; in the assay on HCT116 MTAP null cells, 6.84.
The matching figures for `CN(C(=O)c1cc2c(cn1)nc(N)c1c2cnn1C)[C@@H]1COc2cc(S(F)(F)(F)(F)F)ccc21` [Example 257, 4-amino-N,3-dimethyl-N-((3S)-6-(pentafluoro-lambda~6~-sulfanyl)-2,3-dihydro-1-benzofuran-3-yl)-3H-pyrazolo[3,4-c][1,7]naph-thyridine-8-carboxamide]: 5.69 and 7.23.
For `CN(C(=O)c1cc2c(cc1F)nc(N)c1c2cnn1C)[C@@H]1COc2cc(C(F)(F)F)ccc21` [Example 258, 4-amino-7-fluoro-N,3-dimethyl-N-((3S)-6-(trifluoromethyl)-2,3-dihydro-1-benzofuran-3-yl)-3H-pyrazolo[3,4-c]quinoline-8-carboxamide], the figures for the pIC50 with HCT116 WT cells and in the assay with HCT116 MTAP null cells were 5.39 and 7.27, respectively.
Regarding `CN(C(=O)c1cc2c(cc1F)nc(N)c1c2cnn1C)[C@@H]1COc2cc(OC(F)(F)F)ccc21` [Example 259, 4-amino-7-fluoro-N,3-dimethyl-N-((3S)-6-(trifluoromethoxy)-2,3-dihydro-1-benzofuran-3-yl)-3H-pyrazolo[3,4-c]quinoline-8-carboxamide], the results for the pIC50 in the assay with HCT116 WT cells and in the assay on HCT116 MTAP null cells were 5.49 and 7.21, respectively.
Regarding `CN(C(=O)c1cc2c(cc1F)nc(N)c1c2cnn1C)[C@@H]1COc2cc(-c3cnn(C(F)(F)F)c3)ccc21` [Example 260, 4-amino-7-fluoro-N,3-dimethyl-N-((3S)-6-(1-(trifluoromethyl)-1H-pyrazol-4-yl)-2,3-dihydro-1-benzofuran-3-yl)-3H-pyrazolo-[3,4-c]quinoline-8-carboxamide], the pIC50 in the assay with HCT116 WT cells was 4.98; in the assay on HCT116 MTAP null cells, 7.09.
For `CN(C(=O)c1ccc2nc(N)c3cn[nH]c3c2c1)[C@@H]1COc2cc(C(F)(F)F)ccc21` [Example 261, 4-amino-N-methyl-N-((3S)-6-(trifluoromethyl)-2,3-dihydro-1-benzofuran-3-yl)-1H-pyrazolo[4,3-c]quinoline-8-carboxamide], the results for the pIC50 in the assay on HCT116 WT cells and in the assay on HCT116 MTAP null cells were 6.15 and 7.82, respectively.
The matching figures for `Cc1n[nH]c2c1c(N)nc1ccc(C(=O)N(C)[C@@H]3COc4cc(C(F)(F)F)ccc43)cc12` [Example 262, 4-amino-N,3-dimethyl-N-((3S)-6-(trifluoromethyl)-2,3-dihydro-1-benzofuran-3-yl)-1H-pyrazolo[4,3-c]quinoline-8-carboxamide]: 5.71 and 7.19.
As to `Cc1nn(C)c2c1c(N)nc1ccc(C(=O)N(C)[C@@H]3COc4cc(C(F)(F)F)ccc43)cc12` [Example 263, 4-amino-N,1,3-trimethyl-N-((3S)-6-(trifluoromethyl)-2,3-dihydro-1-benzofuran-3-yl)-1H-pyrazolo[4,3-c]quinoline-8-carboxamide], the pIC50 in the assay on HCT116 WT cells is 5.70; in the assay with HCT116 MTAP null cells it was 7.24.
